Assay results from the NIST ThermoML archive (doi:10.1016/j.jct.2016.01.012).
Numbers after ± are expanded uncertainties.

Key:
[1] = refractive index (Na D-line) (dimensionless); conditions: 298.15 K; 100 kPa; Liquid; Standard Abbe refractometry
[2] = 100 kPa, Liquid; for viscosity: Falling or rolling sphere viscometry
[3] = refractive index (Na D-line) (dimensionless); xn = mol fraction of the nth substance listed; conditions: 298.15 K, 100 kPa, Liquid, Standard Abbe refractometry
[4] = xn = mol fraction of the nth substance listed; conditions: 100 kPa, Liquid; for electrical conductivity: Direct current cell with electrodes; for viscosity: Falling or rolling sphere viscometry, x2 = 0

With `CN(C)C(=[NH2+])N(C)C.c1c[n-]cn1` [1,1,3,3-tetramethylguanidinium imidazol-1-ide] the refractive index [1] was 1.4943 ± 0.0006 and the electrical conductivity ([2]; 298.15 K, Direct current cell with electrodes) was 0.218 ± 0.002 S/m.

Compound `CN(C)C(=[NH2+])N(C)C.c1c[n-]cn1` [1,1,3,3-tetramethylguanidinium imidazol-1-ide] + CCCCO has a refractive index ([3]; x1 = 0.0499) of 1.4074 ± 0.0005, a refractive index ([3]; x1 = 0.1004) of 1.4159 ± 0.0005 and a refractive index ([3]; x1 = 0.1999) of 1.4316 ± 0.0005. The refractive index ([3]; x1 = 0.2997) was 1.4443 ± 0.0005, the refractive index ([3]; x1 = 0.3985) was 1.4545 ± 0.0005 and the refractive index ([3]; x1 = 0.4997) was 1.4641 ± 0.0005. The refractive index ([3]; x1 = 0.6499) was 1.4748 ± 0.0006, the refractive index ([3]; x1 = 0.8002) was 1.4839 ± 0.0006 and the refractive index ([3]; x1 = 0.9004) was 1.4888 ± 0.0006. For the same compound, the refractive index ([3]; x1 = 1) was 1.4943 ± 0.0006.

`CN(C)C(=[NH2+])N(C)C.c1c[n-]cn1` [1,1,3,3-tetramethylguanidinium imidazol-1-ide] + CCCO showed a refractive index ([3]; x1 = 0.0499) of 1.3969 ± 0.0006, a refractive index ([3]; x1 = 0.0999) of 1.4086 ± 0.0005 and a refractive index ([3]; x1 = 0.2002) of 1.428 ± 0.0005. It also gave a refractive index ([3]; x1 = 0.2996) of 1.4423 ± 0.0005, a refractive index ([3]; x1 = 0.4002) of 1.4545 ± 0.0005 and a refractive index ([3]; x1 = 0.4988) of 1.4642 ± 0.0005. The refractive index ([3]; x1 = 0.6264) was 1.4742 ± 0.0006, the refractive index ([3]; x1 = 0.8001) was 1.4848 ± 0.0006 and the refractive index ([3]; x1 = 0.9006) was 1.4895 ± 0.0006. For the same compound, the refractive index ([3]; x1 = 1) was 1.4943 ± 0.0006.

`CN(C)C(=[NH2+])N(C)C.c1c[n-]cn1` [1,1,3,3-tetramethylguanidinium imidazol-1-ide] + CCO showed a refractive index ([3]; x1 = 0.0483) of 1.3799 ± 0.0006, a refractive index ([3]; x1 = 0.0999) of 1.3983 ± 0.0006 and a refractive index ([3]; x1 = 0.2003) of 1.4242 ± 0.0006. For the same compound, the refractive index ([3]; x1 = 0.3001) was 1.4405 ± 0.0005, the refractive index ([3]; x1 = 0.3999) was 1.4547 ± 0.0005 and the refractive index ([3]; x1 = 0.5) was 1.4652 ± 0.0006. For the same compound, the refractive index ([3]; x1 = 0.643) was 1.4762 ± 0.0006, the refractive index ([3]; x1 = 0.7966) was 1.4854 ± 0.0006 and the refractive index ([3]; x1 = 0.8987) was 1.4903 ± 0.0006. The refractive index ([3]; x1 = 1) was 1.4943 ± 0.0006, the electrical conductivity ([4]; 298.15 K, x1 = 0.01) was 0.0131 ± 0.001 S/m and the electrical conductivity ([4]; 298.15 K, x1 = 0.0299) was 0.0337 ± 0.001 S/m. For the same compound, the electrical conductivity ([4]; 298.15 K, x1 = 0.0897) was 0.092 ± 0.0013 S/m, the electrical conductivity ([4]; 298.15 K, x1 = 0.1197) was 0.12 ± 0.0014 S/m and the electrical conductivity ([4]; 298.15 K, x1 = 0.1499) was 0.139 ± 0.0015 S/m. It also gave an electrical conductivity ([4]; 298.15 K, x1 = 0.1797) of 0.16 ± 0.0017 S/m, an electrical conductivity ([4]; 298.15 K, x1 = 0.2001) of 0.166 ± 0.0017 S/m and an electrical conductivity ([4]; 298.15 K, x1 = 0.2195) of 0.173 ± 0.0018 S/m. The electrical conductivity ([4]; 298.15 K, x1 = 0.2398) was 0.179 ± 0.0018 S/m, the electrical conductivity ([4]; 298.15 K, x1 = 0.2602) was 0.185 ± 0.0019 S/m and the electrical conductivity ([4]; 298.15 K, x1 = 0.2996) was 0.199 ± 0.002 S/m. It also gave an electrical conductivity ([4]; 298.15 K, x1 = 0.3995) of 0.213 ± 0.002 S/m, an electrical conductivity ([4]; 298.15 K, x1 = 0.5) of 0.221 ± 0.002 S/m and an electrical conductivity ([4]; 298.15 K, x1 = 0.6467) of 0.227 ± 0.002 S/m. The electrical conductivity ([4]; 298.15 K, x1 = 0.801) was 0.229 ± 0.002 S/m, the electrical conductivity ([4]; 298.15 K, x1 = 0.8996) was 0.223 ± 0.002 S/m and the electrical conductivity ([4]; 298.15 K, x1 = 1) was 0.218 ± 0.002 S/m.

Work on `CN(C)C(=[NH2+])N(C)C.c1c[n-]cn1` [1,1,3,3-tetramethylguanidinium imidazol-1-ide] + CO yielded a refractive index ([3]; x1 = 0.0501) of 1.3631 ± 0.0008, a refractive index ([3]; x1 = 0.1005) of 1.389 ± 0.0006 and a refractive index ([3]; x1 = 0.1957) of 1.4222 ± 0.0006. It also gave a refractive index ([3]; x1 = 0.2953) of 1.4423 ± 0.0005, a refractive index ([3]; x1 = 0.393) of 1.4577 ± 0.0005 and a refractive index ([3]; x1 = 0.5005) of 1.4688 ± 0.0005. The refractive index ([3]; x1 = 0.6431) was 1.4791 ± 0.0006, the refractive index ([3]; x1 = 0.7815) was 1.4865 ± 0.0006 and the refractive index ([3]; x1 = 0.8994) was 1.4915 ± 0.0006. For the same compound, the refractive index ([3]; x1 = 1) was 1.4943 ± 0.0006.

With `CCCCO` [butan-1-ol] the refractive index [1] was 1.3975 ± 0.0005.

With `CCCCO` [butan-1-ol] + CN(C)C(=[NH2+])N(C)C.c1c[n-]cn1 the refractive index ([3]; x2 = 0) was 1.3975 ± 0.0005.

For `CCO` [ethanol], the refractive index [1] was 1.3598 ± 0.0005.

`CCO` [ethanol] + CN(C)C(=[NH2+])N(C)C.c1c[n-]cn1 gave a refractive index ([3]; x2 = 0) of 1.3598 ± 0.0005.

Work on `CO` [methanol] yielded a refractive index [1] of 1.3267 ± 0.0005.

With `CO` [methanol] + CN(C)C(=[NH2+])N(C)C.c1c[n-]cn1 the refractive index ([3]; x2 = 0) was 1.3267 ± 0.0005.

`CCCO` [propan-1-ol] gave a refractive index [1] of 1.3836 ± 0.0005.

Work on `CCCO` [propan-1-ol] + CN(C)C(=[NH2+])N(C)C.c1c[n-]cn1 yielded a refractive index ([3]; x2 = 0) of 1.3836 ± 0.0005.

In the case of `O` [water], the refractive index [1] is reported as 1.3331 ± 0.0005, the viscosity ([2]; 293.15 K) is reported as 0.997 ± 0.041 mPa·s and the viscosity ([2]; 298.15 K) is reported as 0.886 ± 0.036 mPa·s. The viscosity ([2]; 303.15 K) was 0.799 ± 0.033 mPa·s, the viscosity ([2]; 308.15 K) was 0.726 ± 0.03 mPa·s and the viscosity ([2]; 313.15 K) was 0.665 ± 0.027 mPa·s.

In the case of `O` [water] + CN(C)C(=[NH2+])N(C)C.c1c[n-]cn1, the refractive index ([3]; x2 = 0) is reported as 1.3331 ± 0.0005, the viscosity ([4]; 293.15 K) is reported as 0.997 ± 0.041 mPa·s and the viscosity ([4]; 298.15 K) is reported as 0.886 ± 0.036 mPa·s. The viscosity ([4]; 303.15 K) was 0.799 ± 0.033 mPa·s, the viscosity ([4]; 308.15 K) was 0.726 ± 0.03 mPa·s and the viscosity ([4]; 313.15 K) was 0.665 ± 0.027 mPa·s.
